Measured values reported in the SangsterLogP compilation.

Row | Compound | logP
1 | CC1CCC2CC(=O)N(Cc3ccc(Cl)cc3)C3OC4(C)CCC1C23OO4 (stereo not given) | 4.32
2 | CC1CCC2CC(=O)N(CCc3ccccc3)C3OC4(C)CCC1C23OO4 (stereo not given) | 3.94
3 | CCCN1C(=O)CC2CCC(C)C3CCC4(C)OOC23C1O4 (stereo not given) | 3.41
4 | CCCCCN1C(=O)CC2CCC(C)C3CCC4(C)OOC23C1O4 (stereo not given) | 4.24
5 | CC(C)CN1C(=O)CC2CCC(C)C3CCC4(C)OOC23C1O4 (stereo not given) | 3.66
6 | CC(C)CCN1C(=O)CC2CCC(C)C3CCC4(C)OOC23C1O4 (stereo not given) | 4.16
7 | CC1CCC2CC(=O)N(CCCc3ccccc3)C3OC4(C)CCC1C23OO4 (stereo not given) | 4.39
8 | C[C@@H]1CC[C@H]2[C@@H](C)CO[C@@H]3O[C@]4(C)CC[C@@H]1[C@]32OO4 | 3.16
9 | CC1CCC2CC(=O)N(CC(=O)O)C3OC4(C)CCC1C23OO4 (stereo not given) | 1.75
10 | C[C@@H]1CC[C@H]2[C@@H](C)C(=O)O[C@@H]3O[C@@]4(C)CC[C@@H]1[C@]32OO4 (relative stereo) | 2.9
